According to patent US4542027A, “Laidlomycin phenylcarbamate” (Syntex (U.S.A.) Inc., priority 1984, dated 1985):
Read-outs that look alike come from different tables or passages of the source.

What was measured:
[1] = Stability in soybean millrun feed premix at 60° C.; type: physicochemical; settings: soybean millrun feed premix; 60° C., one week, soybean millrun premix, 10% (w/w)
Description: These materials were then stored at 60° C. and analyzed for starting material at one week. The premix composition is given in Table 5 and the stability data in Table 6.

[2] = Stability at 60° C. in methanol-water, acetate buffer; type: physicochemical; settings: methanol-water, acetate buffer
Description: Laidlomycin phenylcarbamate, laidlomycin isopopylcarbamate and two laidlomycin esters were prepared and their relative stability at 60° C. methanol-water, acetate buffer was determined. A complete list of the esters and carbamates which were tested under these conditions follows: […]

rumen fluid [3] = experiment: Propionic acid production (VFA) in in vitro rumen fluid fermentation; type: cell-based, steer; set-up: Propionic acid production rate: unit not given here; settings: 9 h
Description: (§1) Two separate fermentation models were used to evaluate effects of laidlomycin and laidlomycin phenylcarbamate upon volatile fatty acids (VFA) and lactic acid production. Test compounds were solubilized in absolute ethanol at concentrations of 1 mg/ml and were serially diluted twofold in absolute ethanol through six additional concentrations. Aliquots of 200 μl were transferred to 18×150 mm test tubes, which were used as incubation vessels, and the ethanol was evaporated.
(§2) For both fermentation models rumen fluid from a rumen-fistulated steer, consuming a 100% alfalfa hay diet, was obtained before the morning feeding. The fluid was strained through four layers of cheesecloth, mixed with an equal volume of CO2 -saturated buffer, and 10 ml was transferred to each of the incubation vessels. All tubes were fitted with gas-release stoppers under an atmosphere of CO2 and were incubated in a shaking waterbath at 39° C. […] This medium, designed to be microbiologically nonselective, encouraged VFA production with no accumulation of lactic acid. Buffer used to study lactic acid accumulation (table 1) contained 150 mmol of glucose/liter and had little buffering capacity. This medium favored growth of lactic acid-producing bacteria and allowed rapid production of lactic acid coupled with a precipitous drop in pH from pH 6.2 to less than pH 5 during the course of an incubation.
(§3) Fermentation was terminated at 9 h for the VFA fermentations and at 5.5 h for the lactic acid fermentations by addition of 2 ml of 25% metaphosphoric acid to the incubation tubes. Aliquots were frozen overnight, thawed, centrifuged at 30,000 × g for 10 min and the resulting supernatants analyzed for either L(+)-lactic acid or VFA. The L(+)-lactic acid was analyzed via a specific enzymatic assay in which the concentration of lactic acid in the fermentation broth was quantified by the increase in absorbance of light at 340 nm when nicotinamide adenine dinucleotide was reduced by lactic acid with the aid of L(+)-lactic dehydrogenase. VFA were analyzed via gas chromatography using a Varian chromatograph equipped with a flame ionization detector. Acids were separated on a glass column (0.64×182.9 cm) packed with 10% SP-1200/1% H3 PO4 on Chromosorb-WAW®, 80-100 mesh. This column was obtained pre-packed from Supelco, Inc., Bellefont, Pennsylvania. Chromatographic conditions included a column temperature of 145° C., an injector temperature of 190° C., a detector temperature of 190° C., a carrier gas flow of 45 ml/min and an injection volume of 1 μl.
(§4) Net production rates of all acids were calculated by subtracting the concentration of acids in the incubation fluid before incubation from the concentration determined in each tube after incubation. Molar proportions of acetic, propionic, and butyric acids produced were calculated by dividing the production rate of individual acids by the sum of the production rates of the three acids. Data were analyzed by analysis of variance (SAS, 1979). Comparisons (Duncan's multiple range test) of individual means were made when treatment effects (P<0.05) were indicated.

rumen fluid [4] = experiment: L(+)-Lactic acid production in in vitro rumen fluid fermentation; type: cell-based, steer; set-up: Lactic acid production rate: unit not given here; settings: 5.5 h
Description: as §1, §2, §3, §4

Gram positive bacteria = settings: Journal of Antibiotics 1974, 1976; cited from earlier work
[5] = U.S. Pat. No. 3,794,732; cited from earlier work

## CCC(=O)OC(C(C)C(=O)O)C(C)C1OC2(CCC(C)(C3CCC(C)(C4OC(C5OC(O)(COC(=O)C(C)C)C(C)CC5C)CC4C)O3)O2)CC(O)C1C (stereo not shown) [Laidlomycin isobutyrate, reference compound]
[1]
  remaining at 168 h: 70%

## CCC(=O)OCC1(O)OC(C2CC(C)C(C3(C)CCC(C4(C)CCC5(CC(O)C(C)C(C(C)C(OC(=O)CC)C(C)C(=O)O)O5)O4)O3)O2)C(C)CC1C (stereo not shown) [Laidlomycin propionate, reference compound]
[2]; 60° C., read-out: t1/2 (converted)
  half-life: 11.1 h
[1]
  remaining at 168 h: 59%

## CCC(=O)OC(C(C)C(=O)O)C(C)C1OC2(CCC(C)(C3CCC(C)(C4OC(C5OC(O)(CO)C(C)CC5C)CC4C)O3)O2)CC(O)C1C (stereo not shown) [Laidlomycin, laidlomycin]
Rumen fluid [3]; 0.31 μg/ml
  Propionic acid production rate: 21.1
Rumen fluid [3]; 1.25 μg/ml
  Propionic acid production rate: 20.9
Rumen fluid [3]; 2.50 μg/ml
  Propionic acid production rate: 21.8
Rumen fluid [3]; 5.00 μg/ml
  Propionic acid production rate: 22.2
Rumen fluid [3]; 10.00 μg/ml
  Propionic acid production rate: 23.1
  Propionic acid production, percentage of control: 108 % of control
Rumen fluid [3]; 20.00 μg/ml
  Propionic acid production rate: 23.2
  Propionic acid production, percentage of control: 109 % of control
Rumen fluid [3]; 0.31 μg/ml, read-out: Propionic acid production, percentage of control
  activity at 0.31 µg/mL: 99%
Rumen fluid [3]; 1.25 μg/ml, read-out: Propionic acid production, percentage of control
  activity at 1.25 µg/mL: 98%
Rumen fluid [3]; 2.50 μg/ml, read-out: Propionic acid production, percentage of control
  activity at 2.5 µg/mL: 102%
Rumen fluid [3]; 5.00 μg/ml, read-out: Propionic acid production, percentage of control
  activity at 5 µg/mL: 104%
Rumen fluid [3]; 10.00 μg/ml, read-out: Propionic acid production, percentage of control
  activity at 10 µg/mL: 108%
Rumen fluid [3]; 20.00 μg/ml, read-out: Propionic acid production, percentage of control
  activity at 20 µg/mL: 109%
Rumen fluid [3]; read-out: Propionic acid production, percentage of control, 0.62 μg/ml, 9 h
  activity at 0.62 µg/mL: 98%
Rumen fluid [4]; 0.31 μg/ml
  Lactic acid production rate: 28.3
Rumen fluid [4]; 0.31 μg/ml, read-out: Lactic acid production, percentage of control
  activity at 0.31 µg/mL: 101%
Rumen fluid [4]; 0.62 μg/ml
  Lactic acid production rate: 30.7
Rumen fluid [4]; 0.62 μg/ml, read-out: Lactic acid production, percentage of control
  activity at 0.62 µg/mL: 110%
Rumen fluid [4]; 1.25 μg/ml
  Lactic acid production rate: 26.4
Rumen fluid [4]; 1.25 μg/ml, read-out: Lactic acid production, percentage of control
  activity at 1.25 µg/mL: 94%
Rumen fluid [4]; 2.50 μg/ml
  Lactic acid production rate: 32.0
Rumen fluid [4]; 2.50 μg/ml, read-out: Lactic acid production, percentage of control
  activity at 2.5 µg/mL: 115%
Rumen fluid [4]; 5.00 μg/ml
  Lactic acid production rate: 26.5
Rumen fluid [4]; 5.00 μg/ml, read-out: Lactic acid production, percentage of control
  activity at 5 µg/mL: 95%
Rumen fluid [4]; 10.00 μg/ml
  Lactic acid production rate: 21.6
Rumen fluid [4]; 10.00 μg/ml, read-out: Lactic acid production, percentage of control
  activity at 10 µg/mL: 77%
Rumen fluid [4]; 20.00 μg/ml
  Lactic acid production rate: 22.7
  Lactic acid production, percentage of control: 81 % of control
Rumen fluid [4]; 20.00 μg/ml, read-out: Lactic acid production, percentage of control
  activity at 20 µg/mL: 81%
Gram positive bacteria
  Growth inhibition of Gram positive bacteria: inhibits the growth of Gram positive bacteria

## CC[C@@]1([C@@H]2O[C@@H]([C@H]3O[C@@](O)(CO)[C@H](C)C[C@@H]3C)C[C@@H]2C)CC[C@H]([C@]2(C)CC[C@]3(C[C@H](O)[C@@H](C)[C@@H]([C@@H](C)[C@@H](OC)[C@H](C)C(=O)O)O3)O2)O1 [Monensin]
[5]
  Increasing feed utilization in ruminants: useful in increasing feed utilization in ruminants

## CCCC(=O)O [butyrate]
[2]
  half-life: 22.3 h

## laidlomycin isopopylcarbamate [isopropylcarbamate]
[2]; 60° C.
  t1/2: 501.8 h
